This assay has as its target T1, human muscarinic acetylcholine M1 receptor (Homo sapiens, UniProt P11229).
T1 construct: expressed in transfected cells; host or cells: CHO-K1
T1 sequence (P11229 1-460): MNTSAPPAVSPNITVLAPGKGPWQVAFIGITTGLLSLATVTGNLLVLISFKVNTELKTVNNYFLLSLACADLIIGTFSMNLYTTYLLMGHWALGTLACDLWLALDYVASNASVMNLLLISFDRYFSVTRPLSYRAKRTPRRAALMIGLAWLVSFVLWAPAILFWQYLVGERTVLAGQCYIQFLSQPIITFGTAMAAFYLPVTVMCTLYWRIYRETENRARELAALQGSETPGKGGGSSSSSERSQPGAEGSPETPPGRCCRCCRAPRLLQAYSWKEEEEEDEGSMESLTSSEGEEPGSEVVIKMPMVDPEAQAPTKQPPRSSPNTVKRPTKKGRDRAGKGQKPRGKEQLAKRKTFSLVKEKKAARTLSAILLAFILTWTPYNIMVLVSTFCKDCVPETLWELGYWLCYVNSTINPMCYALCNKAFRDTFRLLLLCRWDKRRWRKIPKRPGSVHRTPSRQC
In words: M1 PAM Assay (IP-One HTRF, IP1 accumulation in M1-CHO cells). The format is cell-based. Here is the method:
Then diluted compounds (0.6% DMSO final concentration) are added together with EC20 of acetylcholine and incubated with the cells for 30 min at 37° C., 5% CO2.
CHO-K1 cells stably transfected with human muscarinic acetylcholine M1 receptor are cultured in Ham's F12 medium containing 10% heat inactivated fetal calf serum, 2 mM L-glutamine and Penicillin-Streptomycin grown in a humidified atmosphere at 5% CO2/95% air at 37° C.
(In general: TR-FRET usually uses a lanthanide donor and a delayed reading to cut background.)

Where [1] appears, read: CHO-K1 cells stably transfected with human M1 receptor, compounds added with EC20 of acetylcholine (25 nM), 30 min, intracellular IP1 by IP-One HTRF, read-out: M1 PAM EC50.

In patent US9505769B2 (ASCENEURON SA, priority 2013, dated 2016) one finds EC50 data, which are given here for 20 compounds.

Each structure is given as a SMILES string. Counter-ions that a name gives are not always drawn. Like-named read-outs stand apart in the source and are kept apart here. Bounds are passed on as bounds.

As usually defined, the EC50 is the concentration needed to bring the measured effect to its halfway point. With `COCCN1[C@@H]2CC[C@H]1C[C@@H](Oc1cc(F)ccc1C(=O)N1Cc3nn4cc(Cl)cnc4c3C1)C2` [Example 52, (3-chloro-7H-pyrrolo[3′,4′:3,4]pyrazolo[1,5-a]pyrimidin-8(9H)-yl)(4-fluoro-2-{[(3-endo)-8-(2-methoxyethyl)-8-azabicyclo[3.2.1]oct-3-yl]oxy}phenyl)methanone], the EC50 was in the range of 200 to 1000 nM.
`CN1[C@@H]2CC[C@H]1C[C@@H](Oc1cc(F)ccc1C(=O)N1Cc3nn4cc(Cl)cnc4c3C1)C2` [Example 53, (3-chloro-7H-pyrrolo[3′,4′:3,4]pyrazolo[1,5-a]pyrimidin-8(9H)-yl)(4-fluoro-2-{[(3-endo)-8-methyl-8-azabicyclo[3.2.1]oct-3-yl]oxy}phenyl)methanone] showed an EC50 of under 200 nM.
In the case of `Cc1nc2c3c(nn2c(C)c1Cl)CN(C(=O)c1ccc(F)cc1OC[C@H]1C[C@H](F)CN1)C3` [Example 55, (6-Chloro-5,7-dimethyl-1H,3H-2,4,7a,8-tetraaza-cyclopenta[a]inden-2-yl)-[4-fluoro-2-((2R,4S)-4-fluoro-pyrrolidin-2-ylmethoxy)-phenyl]-methanone], under setting [1], the EC50 is 200 to 1000 nM.
Turning to `Cc1nc2c3c(nn2c(C)c1Cl)CN(C(=O)c1ccc(F)cc1OC[C@H]1CC(F)(F)CN1)C3` [Example 56, (6-Chloro-5,7-dimethyl-1H,3H-2,4,7a,8-tetraaza-cyclopenta[a]inden-2-yl)-[2-((R)-4,4-difluoro-pyrrolidin-2-ylmethoxy)-4-fluoro-phenyl]-methanone], under setting [1], the concentration giving a half-maximal response (EC50) is under 200 nM.
Consider `Cc1nc2c3c(nn2c(C)c1Cl)CN(C(=O)c1ccc(F)cc1O[C@H]1C[C@H]2CCC[C@@H](C1)N2C)C3` [Example 58, (3-chloro-2,4-dimethyl-7H-pyrrolo[3′,4′:3,4]pyrazolo[1,5-a]pyrimidin-8(9H)-yl)(4-fluoro-2-{[(3-endo)-9-methyl-9-azabicyclo[3.2.1]nonan-3-yl]oxy}phenyl)methanone], for which the EC50 lay in the range of 200 to 1000 nM.
Turning to `O=C(c1ccc(F)cc1O[C@H]1C[C@H]2CC[C@@H](C1)N2CC1CC1)N1Cc2nn3cc(Cl)cnc3c2C1` [Example 59, (3-chloro-7H-pyrrolo[3′,4′:3,4]pyrazolo[1,5-a]pyrimidin-8(9H)-yl)(2-{[(3-endo)-8-(cyclopropylmethyl)-8-azabicyclo[3.2.1]oct-3-yl]oxy}-4-fluorophenyl)methanone], the EC50 was under 200 nM.
For `Cc1nc2c3c(nn2c(C)c1Cl)CN(C(=O)c1ccc(F)cc1OC[C@H]1C[C@@H](F)CN1)C3` [Example 60, (6-Chloro-5,7-dimethyl-1H,3H-2,4,7a,8-tetraaza-cyclopenta[a]inden-2-yl)-[4-fluoro-2-((2R,4R)-4-fluoro-pyrrolidin-2-ylmethoxy)-phenyl]-methanone], under setting [1], the EC50 is under 200 nM.
For `Cc1nc2c3c(nn2c(C)c1Cl)CN(C(=O)c1ccc(F)cc1OC1CC(N)C1)C3` (centres unmarked) [Example 61, [2-(3-Amino-cyclobutoxy)-4-fluoro-phenyl]-(6-chloro-5,7-dimethyl-1H,3H-2,4,7a,8-tetraaza-cyclopenta[a]inden-2-yl)-methanone, hydrochloride], the EC50 under setting [1] was under 200 nM.
For the compound `Cc1nc2c3c(nn2c(C)c1Cl)CN(C(=O)c1ccc(F)cc1OCCN1CC[C@@H](F)C1)C3` [Example 62, (6-Chloro-5,7-dimethyl-1H,3H-2,4,7a,8-tetraaza-cyclopenta[a]inden-2-yl)-{4-fluoro-2-[2-((R)-3-fluoro-pyrrolidin-1-yl)-ethoxy]-phenyl}-methanone], under setting [1], the EC50 is 200 to 1000 nM.
Turning to `CCN1[C@@H]2CC[C@H]1C[C@@H](Oc1cc(F)ccc1C(=O)N1Cc3nn4cc(Cl)cnc4c3C1)C2` [Example 63, (3-chloro-7H-pyrrolo[3′,4′:3,4]pyrazolo[1,5-a]pyrimidin-8(9H)-yl)(2-{[(3-endo)-8-ethyl-8-azabicyclo[3.2.1]oct-3-yl]oxy}-4-fluorophenyl)methanone], the EC50 is under 200 nM.
The compound `CCCN1[C@@H]2CC[C@H]1C[C@@H](Oc1cc(F)ccc1C(=O)N1Cc3nn4cc(Cl)cnc4c3C1)C2` [Example 64, (3-chloro-7H-pyrrolo[3′,4′:3,4]pyrazolo[1,5-a]pyrimidin-8(9H)-yl)(4-fluoro-2-{[(3-endo)-8-propyl-8-azabicyclo[3.2.1]oct-3-yl]oxy}phenyl)methanone] yielded an EC50 of under 200 nM.
For `O=C(c1ccc(F)cc1O[C@H]1C[C@H]2CC[C@@H](C1)N2CC(F)F)N1Cc2nn3cc(Cl)cnc3c2C1` [Example 65, (3-chloro-7H-pyrrolo[3′,4′:3,4]pyrazolo[1,5-a]pyrimidin-8(9H)-yl)(2-{[(3-endo)-8-(2,2-difluoroethyl)-8-azabicyclo[3.2.1]oct-3-yl]oxy}-4-fluorophenyl)methanone], under setting [1], the EC50 lay within 200 to 1000 nM.
Compound `N#CCN1[C@@H]2CC[C@H]1C[C@@H](Oc1cc(F)ccc1C(=O)N1Cc3nn4cc(Cl)cnc4c3C1)C2` [Example 66, [(3endo)-3-{2[(3-chloro-7H-pyrrolo[3′,4′:3,4]pyrazolo[1,5-a]pyrimidin-8(9H)-yl)carbonyl]-5-fluorophenoxy}-8-azabicyclo[3.2.1]oct-8-yl]acetonitrile] displayed an EC50 of 200 to 1000 nM.
In the case of `Cc1cncc(CCOc2cc(F)ccc2C(=O)N2Cc3nn4c(C)c(Cl)c(C)nc4c3C2)c1` [Example 67, (3-chloro-2,4-dimethyl-7H-pyrrolo[3′,4′:3,4]pyrazolo[1,5-a]pyrimidin-8(9H)-yl)(4-fluoro-2-(2-(5-methylpyridin-3-yl)ethoxy)phenyl)methanone], the EC50 under setting [1] fell in the range of 200 to 1000 nM.
On to `Cc1nc2c3c(nn2c(C)c1Cl)CN(C(=O)c1ccc(F)cc1OCC1(N)CC1)C3` [Example 68, (2-((1-aminocyclopropyl)methoxy)-4-fluorophenyl)(3-chloro-2,4-dimethyl-7H-pyrrolo[3′,4′:3,4]pyrazolo[1,5-a]pyrimidin-8(9H)-yl)methanone], for which the EC50 under setting [1] was in the range of 1000 to 3000 nM.
Take `Cc1nc2c3c(nn2c(C)c1Cl)CN(C(=O)c1ccc(F)cc1OC1CC(N(C)C)C1)C3` (centres unmarked) [Example 71, (6-Chloro-5,7-dimethyl-1H,3H-2,4,7a,8-tetraaza-cyclopenta[a]inden-2-yl)-[2-(3-dimethylamino-cyclobutoxy)-4-fluoro-phenyl]-methanone]: the EC50 under setting [1] was in the range of 200 to 1000 nM.
For the compound `COc1cncc(CCOc2cc(F)ccc2C(=O)N2Cc3nn4c(C)c(Cl)c(C)nc4c3C2)c1` [Example 72], the EC50 under setting [1] lay in the range of 1000 to 3000 nM.
Compound `CC(O)CN1[C@@H]2CC[C@H]1C[C@@H](Oc1cc(F)ccc1C(=O)N1Cc3nn4cc(Cl)cnc4c3C1)C2` (stereo partly drawn) [Example 73, (3-chloro-7H-pyrrolo[3′,4′:3,4]pyrazolo[1,5-a]pyrimidin-8(9H)-yl)(4-fluoro-2-{[(3-endo)-8-(2-hydroxypropyl)-8-azabicyclo[3.2.1]oct-3-yl]oxy}phenyl)methanone] returned an EC50 of 200 to 1000 nM.
`CN1[C@@H]2CC[C@H]1C[C@@H](Oc1cc(F)ccc1C(=O)N1Cc3nn4cc(C5CC5)cnc4c3C1)C2` [Example 74, (3-cyclopropyl-7H-pyrrolo[3′,4′:3,4]pyrazolo[1,5-a]pyrimidin-8(9H)-yl)(4-fluoro-2-{[(3-endo)-8-methyl-8-azabicyclo[3.2.1]oct-3-yl]oxy}phenyl)methanone] had an EC50 of under 200 nM.
Turning to `Cc1nc2c3c(nn2c(C)c1Cl)CN(C(=O)c1ccc(F)cc1OC1CCN(CC(O)C(F)(F)F)CC1)C3` (centres unmarked) [Example 75, (6-Chloro-5,7-dimethyl-1H,3H-2,4,7a,8-tetraaza-cyclopenta[a]inden-2-yl)-{4-fluoro-2-[1-(3,3,3-trifluoro-2-hydroxy-propyl)-piperidin-4-yloxy]-phenyl}-methanone], the EC50 under setting [1] was 200 to 1000 nM.
